From patent US20240327359A1, “3-ISOXAZOLIDINONE COMPOUND, PREPARATION METHOD, HERBICIDAL COMPOSITION AND APPLICATION THEREOF” (QINGDAO KINGAGROOT CHEMICAL COMPOUND CO., LTD., priority 2021, published 2024)
Read-outs that look alike come from different tables or passages of the source.

Tested on: weeds
Test: Activity test of the compositions, soil sealing treatment
Format: in vivo
Experimental: The desired active ingredient B was purchased from a reagent company or synthesized by a known method. The technical materials were all dissolved in acetone and diluted with an aqueous solution containing 0.10% emulsifier Tween-80 which were to be used immediately after dilution.
Weeds are cultivated in a controllable sunlight greenhouse at 20 to 30° C., in natural light, and with relative humidity of 57% to 72%. […] The test soil was filled quantitatively to ¾ of the pots and then watered from the bottom of the pots to completely wet the soil to saturation. The test weed seeds were accelerated to just germinate, and then evenly and quantitatively sowed on the surface, then covered with 0.5-1 cm soil according to the seed size, and ready for use 72 hours after sowing.
Each treatment was repeated 4 times. Four pots with 20 weed seeds per pot were treated each time.
The well-sowed test materials were evenly placed on a platform with an area of 0.5 m^2, and solution of agents was sprayed on the soil by the 3WP-2000-type walking spray tower at a dosage of 450 kg/ha and at a spray pressure of 0.3 MPa. After all the solution was sprayed, the valve was closed. After 30 seconds, the door of the spray tower was opened, and the nutritional bowl was taken out. Then the valve was opened, and the spray tube was cleaned by spraying 50 ml of water.
A method for investigating absolute numbers was employed. Whole seedlings of survival weeds were cut off with a blade along the soil surface, and the fresh weight of the weeds was weighed with an analytical balance. For dead weeds, the fresh weight thereof was zero.
The investigation was performed 21 days after the treatment for only once in total.

[1] = Veronica didyma, soil (S), B 1 g a.i./mu
[2] = Veronica didyma, soil (S), B 2 g a.i./mu
[3] = Echinochloa crus-galli, soil, read-out: Control effect (%) of B applied alone (B)
[4] = Echinochloa crusgalli, soil (S), B 2 g a.i./mu
[5] = Lolium multiflorum, soil, read-out: Control effect (%) of B applied alone (B)
[6] = Echinochloa crusgalli, soil (S), B 0.6 g a.i./mu
[7] = Echinochloa crusgalli, soil (S), B 1.2 g a.i./mu
[8] = Echinochloa crus-galli, Echinochloa crusgalli, soil (S), B 1 g a.i./mu, read-out: Control effect (%) of B applied alone (B)
[9] = Lolium multiflorum, soil (S), B 16 g a.i./mu, read-out: Control effect (%) of B applied alone (B)
[10] = Lolium multiflorum, soil (S), B 32 g a.i./mu, read-out: Control effect (%) of B applied alone (B)

Cc1ccc(NC(=O)N(C)C)cc1Cl [chlorotoluron]
pest or weed control at 225 g/ha (Alopecurus japonicus, soil (S), B 15 g a.i./mu, read-out: Control effect (%) of B applied alone (B)): 34.2%
pest or weed control at 450 g/ha (Alopecurus japonicus, soil (S), B 30 g a.i./mu, read-out: Control effect (%) of B applied alone (B)): 58.3%

fluridone
Control effect (%) of B applied alone (B) [1]: 37.2%
Control effect (%) of B applied alone (B) [2]: 50.4%

S-metolachlor
Control effect (%) of B applied alone (B) (Lolium multiflorum, soil (S), B 12 g a.i./mu): 32.1%
Control effect (%) of B applied alone (B) (Lolium multiflorum, soil (S), B 24 g a.i./mu): 53.6%

COCc1cnc(C2=NC(C)(C(C)C)C(=O)N2)c(C(=O)O)c1 (stereo not shown) [imazamox]
pest or weed control at 6 g/ha (Lolium multiflorum, soil (S), B 0.4 g a.i./mu, read-out: Control effect (%) of B applied alone (B)): 25.4%
pest or weed control at 12 g/ha (Lolium multiflorum, soil (S), B 0.8 g a.i./mu, read-out: Control effect (%) of B applied alone (B)): 42.7%

CSc1nc(NC(C)C)nc(NC(C)C)n1 [prometryne]
pest or weed control at 90 g/ha (Commelina communis, soil (S), B 6 g a.i./mu, read-out: Control effect (%) of B applied alone (B)): 30.5%
pest or weed control at 180 g/ha (Commelina communis, soil (S), B 12 g a.i./mu, read-out: Control effect (%) of B applied alone (B)): 41.7%

CC(C)=C1OC(=O)N(c2cc(OC3CCCC3)c(Cl)cc2F)C1=O [pentoxazone]
pest or weed control at 30 g/ha [3]: 40.1%
pest or weed control at 60 g/ha [3]: 57.3%

CSC(=O)c1c(C(F)F)nc(C(F)(F)F)c(C(=O)SC)c1CC(C)C [dithiopyr]
pest or weed control at 60 g/ha (Echinochloa crus-galli, Echinochloa crusgalli, soil (S), B 4 g a.i./mu, read-out: Control effect (%) of B applied alone (B)): 40.1%
pest or weed control at 120 g/ha (Echinochloa crus-galli, Echinochloa crusgalli, soil (S), B 8 g a.i./mu, read-out: Control effect (%) of B applied alone (B)): 53.2%

CCOCN(C(=O)CCl)c1c(C)cccc1CC [acetochlor]
pest or weed control at 180 g/ha (Lolium multiflorum, soil (S), B 12 g a.i./mu, read-out: Control effect (%) of B applied alone (B)): 36.5%
pest or weed control at 360 g/ha (Lolium multiflorum, soil (S), B 24 g a.i./mu, read-out: Control effect (%) of B applied alone (B)): 45.7%

COc1cc(OC)nc(NC(=O)NS(=O)(=O)c2c(C3=NOCC(C)O3)c(Cl)nn2C)n1 (stereo not shown) [metazosulfuron]
Control effect (%) of B applied alone (B) (Echinochloa crusgalli, soil (S), B 0.75 g a.i./mu): 32.4%
Control effect (%) of B applied alone (B) (Echinochloa crusgalli, soil (S), B 1.5 g a.i./mu): 41.6%

CS(=O)(=O)c1ccc(C(=O)C2=C(Sc3ccccc3)C3CCC(C3)C2=O)c(Cl)c1 (stereo not shown) [benzobicyclon]
Control effect (%) of B applied alone (B) [4]: 22.6%
Control effect (%) of B applied alone (B) (Echinochloa crusgalli, soil (S), B 4 g a.i./mu): 42.8%

Cc1cc(C)cc(OCC(C)Nc2nc(N)nc(C(C)(C)F)n2)c1 (stereo not shown) [triaziflam]
Control effect (%) of B applied alone (B) (Echinochloa crusgalli, soil treatment (S), B at 2 g a.i./mu, 21 days): 29.4%
Control effect (%) of B applied alone (B) (Echinochloa crusgalli, soil treatment (S), B at 4 g a.i./mu, 21 days): 40.5%

CCNc1nc(NC(C)(C)C)nc(SC)n1 [terbutryne]
Control effect (%) of B applied alone (B) (Alopecurus japonicus, soil (S), B 12 g a.i./mu): 32.4%
Control effect (%) of B applied alone (B) (Alopecurus japonicus, soil (S), B 24 g a.i./mu): 41.9%

CCN(CC)C(=O)C(C)Oc1cccc2ccccc12 (stereo not shown) [napropamide]
pest or weed control at 120 g/ha [3]: 30.1%
pest or weed control at 240 g/ha [3]: 42.3%

CN(C)C(=O)Nc1ccc(Cl)c(Cl)c1 [diuron]
pest or weed control at 600 g/ha [5]: 39.4%
pest or weed control at 1200 g/ha [5]: 65.3%

CCOc1cc(Oc2ccc(C(F)(F)F)cc2Cl)ccc1[N+](=O)[O-] [oxyfluorfen]
pest or weed control at 15 g/ha (Digitaria sanguinalis, soil (S), B 1 g a.i./mu, read-out: Control effect (%) of B applied alone (B)): 28.6%
pest or weed control at 30 g/ha (Digitaria sanguinalis, soil (S), B 2 g a.i./mu, read-out: Control effect (%) of B applied alone (B)): 39.5%

CCC(Oc1ccc(F)c(C(F)(F)F)c1)C(=O)NCc1ccccc1 (stereo not shown) [beflubutamid]
Control effect (%) of B applied alone (B) [1]: 42.6%
Control effect (%) of B applied alone (B) [2]: 57.9%

COC(=O)c1ccccc1CS(=O)(=O)NC(=O)Nc1nc(OC)cc(OC)n1 [bensulfuron-methyl]
pest or weed control at 7.5 g/ha (Cyperus difformis, soil (S), B 0.5 g a.i./mu, read-out: Control effect (%) of B applied alone (B)): 42.6%
pest or weed control at 15 g/ha (Cyperus difformis, soil (S), B 1 g a.i./mu, read-out: Control effect (%) of B applied alone (B)): 55.8%

C#CCN(C)c1c(C#N)cnn1-c1nn2c(c1Cl)CCCC2 [pyraclonil]
Control effect (%) of B applied alone (B) (Echinochloa crusgalli, soil (S), B 1 g a.i./mu): 22.5%
Control effect (%) of B applied alone (B) [4]: 43.6%

CS(=O)(=O)c1ccc(C(=O)C2C(=O)CCCC2=O)c(Cl)c1COCC1CCCO1 (stereo not shown) [tefuryltrione]
Control effect (%) of B applied alone (B) [6]: 28.4%
Control effect (%) of B applied alone (B) [7]: 49.7%

COC(=O)[C@@H](C)O/N=C/c1cc(-n2c(=O)cc(C(F)(F)F)n(C)c2=O)c(F)cc1Cl
pest or weed control at 7.5 g/ha (Echinochloa crus-galli, Echinochloa crusgalli, soil (S), B 0.5 g a.i./mu, read-out: Control effect (%) of B applied alone (B)): 31.5%
pest or weed control at 15 g/ha [8]: 42.3%

C#CCN1C(=O)C(F)(F)Oc2cc(F)c(-n3c(=O)n(C)c(=S)n(C)c3=O)cc21 [trifludimoxazin]
Control effect (%) of B applied alone (B) (Lolium multiflorum, soil (S), B 2 g a.i./mu): 31.5%
Control effect (%) of B applied alone (B) (Lolium multiflorum, soil (S), B 4 g a.i./mu): 42.6%

CCNc1nc(Cl)nc(NC(C)C)n1 [atrazine]
pest or weed control at 300 g/ha (Lolium multiflorum, soil (S), B 20 g a.i./mu, read-out: Control effect (%) of B applied alone (B)): 18.9%
pest or weed control at 600 g/ha (Lolium multiflorum, soil (S), B 40 g a.i./mu, read-out: Control effect (%) of B applied alone (B)): 36.6%

COc1cc(OC)nc(NC(=O)NS(=O)(=O)c2c(C(=O)O)c(Cl)nn2C)n1 [halosulfuron]
pest or weed control at 7.5 g/ha (Veronica polita, Veronica didyma, soil (S), B 0.5 g a.i./mu, read-out: Control effect (%) of B applied alone (B)): 34.8%
pest or weed control at 15 g/ha (Veronica polita, Veronica didyma, soil (S), B 1 g a.i./mu, read-out: Control effect (%) of B applied alone (B)): 54.6%

CCNc1nc(Cl)nc(NC(C)(C)C)n1 [terbutylazine]
Control effect (%) of B applied alone (B) (Echinochloa crusgalli, soil (S), B 6 g a.i./mu): 33.8%
Control effect (%) of B applied alone (B) (Echinochloa crusgalli, soil (S), B 12 g a.i./mu): 52.7%

CSc1nnc(C(C)(C)C)c(=O)n1N [metribuzin]
pest or weed control at 75 g/ha (Amaranthus retroflexus, soil (S), B 5 g a.i./mu, read-out: Control effect (%) of B applied alone (B)): 40.5%
pest or weed control at 150 g/ha (Amaranthus retroflexus, soil (S), B 10 g a.i./mu, read-out: Control effect (%) of B applied alone (B)): 56.2%

CC1=C(c2ccccc2)C(=O)N(C(C)(C)c2cc(Cl)cc(Cl)c2)CO1 [oxaziclomefone]
pest or weed control at 7.5 g/ha (Echinochloa crus-galli, 504 h, Echinochloa crusgalli, soil treatment (S), B at 0.5 g a.i./mu, 21 days, read-out: Control effect (%) of B applied alone (B)): 33.7%
pest or weed control at 15 g/ha (Echinochloa crus-galli, 504 h, Echinochloa crusgalli, soil treatment (S), B at 1 g a.i./mu, 21 days, read-out: Control effect (%) of B applied alone (B)): 51.2%

COc1nc(OC)nc(C(=O)c2cccc(F)c2N(C)S(=O)(=O)C(F)F)n1 [triafamone]
Control effect (%) of B applied alone (B) (Echinochloa crusgalli, soil (S), B 0.25 g a.i./mu): 27.6%
Control effect (%) of B applied alone (B) (Echinochloa crusgalli, soil (S), B 0.5 g a.i./mu): 38.4%

CCCc1ccc2nc(Cl)c(S(=O)(=O)NC(=O)Nc3nc(OC)cc(OC)n3)n2n1 [propyrisulfuron]
Control effect (%) of B applied alone (B) [6]: 22.6%
Control effect (%) of B applied alone (B) [7]: 37.5%

CCCCOCN(C(=O)CCl)c1c(CC)cccc1CC [butachlor]
pest or weed control at 240 g/ha [9]: 28.8%
pest or weed control at 480 g/ha [10]: 46.4%

CC(C)c1ccc(NC(=O)N(C)C)cc1 [isoproturon]
pest or weed control at 120 g/ha (Alopecurus japonicus, soil (S), B 8 g a.i./mu, read-out: Control effect (%) of B applied alone (B)): 41.5%
pest or weed control at 240 g/ha (Alopecurus japonicus, soil (S), B 16 g a.i./mu, read-out: Control effect (%) of B applied alone (B)): 53.6%

CCC(C)Nc1c([N+](=O)[O-])cc(C(C)(C)C)cc1[N+](=O)[O-] (stereo not shown) [butralin]
pest or weed control at 240 g/ha [5]: 19.5%
pest or weed control at 480 g/ha [5]: 35.8%

CN(C(=O)COc1nc2ccccc2s1)c1ccccc1 [mefenacet]
pest or weed control at 240 g/ha [9]: 18.5%
pest or weed control at 480 g/ha [10]: 38.3%

CCCOCCN(C(=O)CCl)c1c(CC)cccc1CC [pretilachlor]
pest or weed control at 120 g/ha (Lolium multiflorum, soil (S), B 8 g a.i./mu, read-out: Control effect (%) of B applied alone (B)): 23.4%
pest or weed control at 240 g/ha [9]: 50.9%

CC(C)(NC(=O)C(Br)C(C)(C)C)c1ccccc1 (stereo not shown) [bromobutide]
pest or weed control at 240 g/ha (Echinochloa crus-galli, Echinochloa crusgalli, soil (S), B 16 g a.i./mu, read-out: Control effect (%) of B applied alone (B)): 37.3%
pest or weed control at 480 g/ha (Echinochloa crus-galli, Echinochloa crusgalli, soil (S), B 32 g a.i./mu, read-out: Control effect (%) of B applied alone (B)): 53.6%

CS(=O)(=O)c1cc(C(F)(F)F)ccc1C(=O)c1cnoc1C1CC1 [isoxaflutole]
pest or weed control at 15 g/ha [8]: 26.4%
pest or weed control at 30 g/ha (Echinochloa crus-galli, Echinochloa crusgalli, soil (S), B 2 g a.i./mu, read-out: Control effect (%) of B applied alone (B)): 44.3%
